From patent US20260184726A1, “HETEROCYCLIC COMPOUNDS AS KINASE INHIBITORS, COMPOSITIONS, AND METHODS OF USE THEREOF” (JS INNOMED HOLDINGS LTD., priority 2022, published 2026)
Where two headings read alike, the source gives them in different places.

Assays:
human RET kinase = molecular target: T1, human RET kinase (Homo sapiens, UniProt P07949); assay: RET Kinase Assay (mobility shift assay, ATP at Km); format: biochemical; conditions: 23 μM ATP (Km), read-out: RET Enzymatic Activity
T1 construct: purchased Carna 08-159
Method: Compounds were tested by Mobility shift assay with ATP concentration at Km. The assay used human RET kinase (Carna 08-159). Test compounds were prepared and diluted in DMSO in 3-fold serial dilutions to 50× of the final testing concentrations. The compounds were then further diluted to 5× by the kinase reaction buffer (50 mM HEPES pH 7.5, 0.0015% Brij-35). The enzymatic reaction for compound testing was performed in a white 384-well polypropylene plate (Corning 3573) with a total reaction volume of 25 μl containing 7 nM RET, 3 μM peptide substrate FAM-P2 (GL Biochem 112394), and 23 μM ATP (Sigma A7699-1G). The assay started with loading RET diluted in kinase reaction buffer to wells, followed by addition of equal volume of 5× compounds for 15-min incubation at the room temperature for pre-treatment. The enzymatic reaction was initiated by addition of mixture of the substrate and ATP prepared in kinase reaction buffer. After incubation at 28° C. for one hour, 25 μl of stopper buffer (a mixture of 100 mM HEPES pH 7.5 buffer, 0.015% Brij-35, 50 mM EDTA and 0.2% of coating reagent 3 (Cliper Lifesciences)). After 30 minutes of incubation at room temperature, the plate was read in a Caliper. Percent of control was calculated as the percentage of compound-treated vs 2% DMSO vehicle-treated. The dose-response curves were generated and the IC50 values were calculated by nonlinear sigmoid curve fitting using XLFit.

human Aurora B kinase = molecular target: T2, human Aurora B kinase (Homo sapiens, UniProt Q96GD4); assay: Aurora B Kinase Assay (mobility shift assay, ATP at Km); format: biochemical; conditions: 15 μM ATP (Km), read-out: AurB Enzymatic Activity
T2 construct: purchased Carna 05-102
Method: Compounds were tested by Mobility shift assay with ATP concentration at Km. The assay used human Aurora B kinase (Carna 05-102). Test compounds were prepared and diluted in DMSO in 3-fold serial dilutions to 50× of the final testing concentrations. The compounds were then further diluted to 5× by the kinase reaction buffer (50 mM HEPES pH 7.5, 0.0015% Brij-35). The enzymatic reaction for compound testing was performed in a white 384-well polypropylene plate (Corning 3573) with a total reaction volume of 25 μl containing 9 nM Aurora B, 3 μM peptide substrate FAM-P21 (GL Biochem 116370), and 15 μM ATP (Sigma A7699-1G). The assay started with loading Aurora B diluted in kinase reaction buffer to wells, followed by addition of equal volume of 5× compounds for 15-min incubation at the room temperature for pre-treatment. The enzymatic reaction was initiated by addition of mixture of the substrate and ATP prepared in kinase reaction buffer. After incubation at 28° C. for one hour, 25 μl of stopper buffer (a mixture of 100 mM HEPES pH 7.5 buffer, 0.015% Brij-35, 50 mM EDTA and 0.2% of coating reagent 3 (Cliper Lifesciences)). After 30 minutes of incubation at room temperature, the plate was read in a Caliper. Percent of control was calculated as the percentage of compound-treated vs 2% DMSO vehicle-treated. The dose-response curves were generated and the IC50 values were calculated by nonlinear sigmoid curve fitting using XLFit.

BAF3 cells = assay: BAF3 Cell Proliferation Assay (CellTiter-Glo, without RET driven, IL-3); format: cell-based; conditions: Mus musculus; growth inhibition in BAF3 cells, 72 hours, with IL-3; read-out: BAF3 Cellular Activity
Method in brief: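 BAF3 cells in RPMI-1640 with 10% FBS and 1 ng/ml IL-3, seeded 2,000/well and settled 24 h at 37 °C, then exposed to compound at final 10 μM down to 0.0015 μM (0.1% DMSO) for 72 h. Viability by CellTiter-Glo luminescence versus DMSO controls; IC50 from curve fit.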

BAF3-KIF5B-RET cells = molecular target: T3, BAF3-KIF5B-RET cells (Homo sapiens, UniProt P07949); assay: BAF3-KIF5B-RET Cell Proliferation Assay (CellTiter-Glo); format: cell-based; conditions: growth inhibition, 72 hours
T3 construct: fused on or other part: P33176 (Kinesin-1 heavy chain)
Method in brief: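 Ba/F3 cells driven by KIF5B-RET (wild-type, V804M or G810R) or TEL-RET-M918T, 2,000 per well in RPMI/10% FBS, attached 24 h. Treated 72 h at 37° C with compound from 0.00015 to 1 μM final, 0.1% DMSO. CellTiter-Glo luminescence relative to DMSO wells gave IC50.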

[1] = molecular target: T4, Ba/F3-KIF5B-RET-V804M cells (Homo sapiens, UniProt P07949, V804M, cells depend on it); assay: Ba/F3-KIF5B-RET-V804M Cell Proliferation Assay (CellTiter-Glo); format: cell-based; conditions: growth inhibition, 72 hours; Table 3; read-out: BZ/F3-KIF5B-RET V804M
T4 construct: fused on or other part: P33176 (Kinesin-1 heavy chain)
Method: (§1) Compounds disclosed herein were tested for the inhibition of RET by a cancer cell proliferation assay commonly known as CellTiter-Glo assay. In this assay, a complete media was prepared by adding 10% fetal bovine serum to RPMI-1640 medium (Life technology) for RET-driven cancer cells (BAF3-FIF5B-RET, Ba/F3-KIF5B-RET-G810R, Ba/F3-TEL-RET-M918T or Ba/F3-KIF5B-RET-V804M). Individual RET-driven type of cells were added to each of 88 wells of a 96 well plate at a seeding density of 2,000 cells/well/95 μL. The cells were allowed to attach to the plate by incubating at 37° C. for 24 hours. The compound was dissolved in DMSO (SIGMA). A solution of test compound was prepared in complete media by serial dilution to obtain the following concentrations: 20 μM, 6.67 μM, 2.22 μM, 0.74 μM, 0.25 μM, 0.082 μM, 0.027 μM, 0.0091 μM and 0.0030 μM. The test compound solution (5 μL) was added to each of 80 cell-containing wells. The final concentrations of the compound were following: 1 μM, 0.33 μM, 0.11 μM, 0.037 μM, 0.012 μM, 0.0041 μM, 0.0014 μM, 0.00046 μM and 0.00015 μM. The final concentration of DMSO is 0.1%. To the 8 remaining cell-containing wells, only complete media (containing 0.1% DMSO) was added to form a control group in order to measure maximal proliferation. To the remaining 8 empty wells, complete media was added to for a vehicle control group in order to measure background. The plates were incubated at 37° C. for 72 hours. 50 μl of CellTiter-Glo® Reagent was added to each well. Mix contents for 2 minutes on an orbital shaker to induce cell lysis. Incubate at room temperature for 10 minutes to stabilize luminescent signal. Record luminescence on Paradigm. Cell viability (CV %) was calculated relative to vehicle (DMSO) treated control wells. The IC50 was calculated using GraphPad Prism.

[2] = molecular target: T5, Ba/F3-KIF5B-RET-G810R cells (Homo sapiens, UniProt P07949, G810R, cells depend on it); assay: Ba/F3-KIF5B-RET-G810R Cell Proliferation Assay (CellTiter-Glo); format: cell-based; conditions: growth inhibition, 72 hours; Table 3
T5 construct: fused on or other part: P33176 (Kinesin-1 heavy chain)
Method: as §1

[3] = molecular target: BA/F3-KIF5B-RET M918T cells (Homo sapiens, UniProt P07949, M918T, cells depend on it, form not given); assay: Ba/F3 RET-M918T Cell Proliferation Assay (CellTiter-Glo); format: cell-based; conditions: growth inhibition, 72 hours; Table 3
Method: as §1

human KDR kinase = molecular target: T6, human KDR kinase (Homo sapiens, UniProt P35968); assay: KDR Kinase Assay (mobility shift assay, ATP at Km); format: biochemical; conditions: 92 μM ATP (Km), read-out: KDR Enzymatic Activity
T6 construct: purchased Carna 08-191
Method: Compounds were tested by Mobility shift assay with ATP concentration at Km. The assay used human KDR kinase (Carna 08-191). Test compounds were prepared and diluted in DMSO in 3-fold serial dilutions to 50× of the final testing concentrations. The compounds were then further diluted to 5× by the kinase reaction buffer (50 mM HEPES pH 7.5, 0.0015% Brij-35). The enzymatic reaction for compound testing was performed in a white 384-well polypropylene plate (Corning 3573) with a total reaction volume of 25 μl containing 1.2 nM KDR, 3 μM peptide substrate FAM-P22 (GL Biochem 112393), and 92 μM ATP (Sigma A7699-1G). The assay started with loading RET diluted in kinase reaction buffer to wells, followed by addition of equal volume of 5× compounds for 15-min incubation at the room temperature for pre-treatment. The enzymatic reaction was initiated by addition of mixture of the substrate and ATP prepared in kinase reaction buffer. After incubation at 28° C. for one hour, 25 μl of stopper buffer (a mixture of 100 mM HEPES pH 7.5 buffer, 0.015% Brij-35, 50 mM EDTA and 0.2% of coating reagent 3 (Cliper Lifesciences)). After 30 minutes of incubation at room temperature, the plate was read in a Caliper. Percent of control was calculated as the percentage of compound-treated vs 2% DMSO vehicle-treated. The dose-response curves were generated and the IC50s were calculated by nonlinear sigmoid curve fitting using XLFit.

[4] = Table 2, read-out: BA/F3-KIF5B-RET Cellular activity
[5] = Table 3, read-out: BA/F3-KIF5B-RET

T4 sequence (P07949 whole entry V804M, the tested form may be a part): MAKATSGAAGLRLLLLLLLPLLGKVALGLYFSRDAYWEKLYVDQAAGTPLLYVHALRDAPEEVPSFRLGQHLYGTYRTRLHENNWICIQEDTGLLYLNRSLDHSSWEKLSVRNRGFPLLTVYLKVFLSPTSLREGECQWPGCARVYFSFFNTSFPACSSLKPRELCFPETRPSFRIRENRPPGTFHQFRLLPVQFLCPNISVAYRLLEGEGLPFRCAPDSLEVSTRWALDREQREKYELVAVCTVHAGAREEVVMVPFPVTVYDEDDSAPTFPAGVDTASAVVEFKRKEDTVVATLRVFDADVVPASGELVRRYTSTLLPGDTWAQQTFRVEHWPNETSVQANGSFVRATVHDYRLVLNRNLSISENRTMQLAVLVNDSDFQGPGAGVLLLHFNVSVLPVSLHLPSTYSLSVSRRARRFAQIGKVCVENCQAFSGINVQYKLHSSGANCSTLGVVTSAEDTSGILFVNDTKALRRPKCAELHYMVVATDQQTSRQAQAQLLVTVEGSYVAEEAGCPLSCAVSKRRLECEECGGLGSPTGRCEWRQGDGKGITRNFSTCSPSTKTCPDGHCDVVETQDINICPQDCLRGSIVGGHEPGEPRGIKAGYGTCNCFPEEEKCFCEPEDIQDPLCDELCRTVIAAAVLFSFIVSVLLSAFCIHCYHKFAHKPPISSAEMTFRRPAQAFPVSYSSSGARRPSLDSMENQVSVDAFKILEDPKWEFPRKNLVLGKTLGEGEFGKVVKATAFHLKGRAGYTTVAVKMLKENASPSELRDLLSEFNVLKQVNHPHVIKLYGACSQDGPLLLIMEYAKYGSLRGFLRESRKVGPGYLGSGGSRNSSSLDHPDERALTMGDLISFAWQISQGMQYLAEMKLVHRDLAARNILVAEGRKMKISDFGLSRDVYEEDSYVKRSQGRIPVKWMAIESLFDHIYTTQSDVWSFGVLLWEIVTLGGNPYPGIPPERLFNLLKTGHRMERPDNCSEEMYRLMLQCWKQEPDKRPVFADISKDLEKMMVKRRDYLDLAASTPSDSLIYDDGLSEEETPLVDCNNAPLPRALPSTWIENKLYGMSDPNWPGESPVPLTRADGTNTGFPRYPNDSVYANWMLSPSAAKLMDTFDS
BA/F3-KIF5B-RET M918T cells, sequence (P07949 whole entry M918T, form open): as the sequence (P07949 whole entry V804M, the tested form may be a part) above, with M804V, M918T counted along it
T3 sequence (P07949 whole entry, change not shown, the tested form may be a part): as the sequence (P07949 whole entry V804M, the tested form may be a part) above, with M804V counted along it
T5 sequence (P07949 whole entry G810R, the tested form may be a part): as the sequence (P07949 whole entry V804M, the tested form may be a part) above, with M804V, G810R counted along it
T1 sequence (P07949 29-1114): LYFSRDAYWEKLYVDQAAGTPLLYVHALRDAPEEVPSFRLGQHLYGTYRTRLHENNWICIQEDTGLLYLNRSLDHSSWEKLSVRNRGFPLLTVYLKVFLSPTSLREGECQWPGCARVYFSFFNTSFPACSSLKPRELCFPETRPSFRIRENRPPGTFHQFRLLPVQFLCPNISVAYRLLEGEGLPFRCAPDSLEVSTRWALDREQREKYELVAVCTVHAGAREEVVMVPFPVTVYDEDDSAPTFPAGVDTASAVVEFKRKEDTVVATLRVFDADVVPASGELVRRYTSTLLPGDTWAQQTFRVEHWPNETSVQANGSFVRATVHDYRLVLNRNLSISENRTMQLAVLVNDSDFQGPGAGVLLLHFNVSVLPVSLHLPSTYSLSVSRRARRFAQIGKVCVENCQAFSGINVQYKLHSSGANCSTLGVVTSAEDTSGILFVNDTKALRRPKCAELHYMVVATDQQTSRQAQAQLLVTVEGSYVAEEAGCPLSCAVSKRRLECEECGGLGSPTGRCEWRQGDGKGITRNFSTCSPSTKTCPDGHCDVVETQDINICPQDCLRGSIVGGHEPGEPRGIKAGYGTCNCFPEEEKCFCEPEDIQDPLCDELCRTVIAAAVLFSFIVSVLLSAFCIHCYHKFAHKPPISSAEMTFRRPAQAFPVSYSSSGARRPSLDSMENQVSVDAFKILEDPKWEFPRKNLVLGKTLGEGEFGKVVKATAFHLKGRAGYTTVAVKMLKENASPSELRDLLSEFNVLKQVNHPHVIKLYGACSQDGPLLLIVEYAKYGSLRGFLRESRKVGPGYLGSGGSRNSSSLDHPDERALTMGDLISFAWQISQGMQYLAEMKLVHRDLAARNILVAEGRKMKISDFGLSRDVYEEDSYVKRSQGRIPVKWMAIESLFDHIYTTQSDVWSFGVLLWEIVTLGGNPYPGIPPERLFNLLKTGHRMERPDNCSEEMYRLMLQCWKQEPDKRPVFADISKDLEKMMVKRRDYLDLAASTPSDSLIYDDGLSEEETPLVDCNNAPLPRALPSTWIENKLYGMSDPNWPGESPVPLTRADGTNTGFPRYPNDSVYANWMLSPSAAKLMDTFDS
T6 sequence (P35968 20-1356): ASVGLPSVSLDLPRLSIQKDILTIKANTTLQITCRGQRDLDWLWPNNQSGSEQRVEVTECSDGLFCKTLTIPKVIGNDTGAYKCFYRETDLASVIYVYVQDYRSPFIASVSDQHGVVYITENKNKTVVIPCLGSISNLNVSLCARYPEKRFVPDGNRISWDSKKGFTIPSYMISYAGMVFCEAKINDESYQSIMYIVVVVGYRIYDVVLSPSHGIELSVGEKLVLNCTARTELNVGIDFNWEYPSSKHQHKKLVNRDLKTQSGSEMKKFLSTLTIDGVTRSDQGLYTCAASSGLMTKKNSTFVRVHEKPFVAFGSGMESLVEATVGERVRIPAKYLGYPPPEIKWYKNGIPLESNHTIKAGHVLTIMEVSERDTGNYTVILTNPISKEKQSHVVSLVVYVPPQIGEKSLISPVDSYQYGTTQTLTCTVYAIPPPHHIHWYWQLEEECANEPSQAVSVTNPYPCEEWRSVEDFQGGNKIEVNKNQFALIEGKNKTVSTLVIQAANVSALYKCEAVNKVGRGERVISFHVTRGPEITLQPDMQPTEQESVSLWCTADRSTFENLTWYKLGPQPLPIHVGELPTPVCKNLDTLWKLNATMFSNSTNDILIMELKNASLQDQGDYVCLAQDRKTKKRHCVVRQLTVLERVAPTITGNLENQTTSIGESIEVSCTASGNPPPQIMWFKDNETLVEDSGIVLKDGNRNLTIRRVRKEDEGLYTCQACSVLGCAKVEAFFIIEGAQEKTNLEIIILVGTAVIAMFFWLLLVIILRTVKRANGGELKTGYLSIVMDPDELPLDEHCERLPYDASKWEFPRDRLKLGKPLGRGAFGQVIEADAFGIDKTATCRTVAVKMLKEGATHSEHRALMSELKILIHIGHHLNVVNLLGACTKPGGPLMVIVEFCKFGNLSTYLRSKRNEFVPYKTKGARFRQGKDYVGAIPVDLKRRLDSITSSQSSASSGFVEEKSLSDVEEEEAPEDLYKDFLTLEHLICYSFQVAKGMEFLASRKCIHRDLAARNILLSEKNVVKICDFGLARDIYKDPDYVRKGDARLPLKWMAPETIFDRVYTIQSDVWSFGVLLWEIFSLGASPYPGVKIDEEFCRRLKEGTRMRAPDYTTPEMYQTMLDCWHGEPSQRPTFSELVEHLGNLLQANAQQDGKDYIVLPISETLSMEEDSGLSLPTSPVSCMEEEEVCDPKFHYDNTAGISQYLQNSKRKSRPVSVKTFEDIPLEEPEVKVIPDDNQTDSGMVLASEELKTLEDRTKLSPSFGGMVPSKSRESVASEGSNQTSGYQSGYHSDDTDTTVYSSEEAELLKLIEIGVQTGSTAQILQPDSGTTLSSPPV
T2 sequence (Q96GD4 whole entry): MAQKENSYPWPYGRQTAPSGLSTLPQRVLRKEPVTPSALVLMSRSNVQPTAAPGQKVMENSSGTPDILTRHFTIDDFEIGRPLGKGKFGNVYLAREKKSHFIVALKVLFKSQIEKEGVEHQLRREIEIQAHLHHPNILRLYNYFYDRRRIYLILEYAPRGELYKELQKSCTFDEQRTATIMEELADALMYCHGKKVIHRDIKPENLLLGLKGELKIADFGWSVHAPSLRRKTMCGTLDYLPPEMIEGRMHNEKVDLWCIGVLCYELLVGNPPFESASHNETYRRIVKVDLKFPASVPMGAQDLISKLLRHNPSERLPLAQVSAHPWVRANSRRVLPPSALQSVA
T2 sequence (Q9NQS7 803-918 partner limits assumed): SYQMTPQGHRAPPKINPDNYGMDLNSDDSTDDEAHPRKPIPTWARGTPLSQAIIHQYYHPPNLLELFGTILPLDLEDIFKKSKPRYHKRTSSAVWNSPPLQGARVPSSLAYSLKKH

| GI50 (BAF3-KIF5B-RET cells; [5]) | GI50 [1] | GI50 [2] | GI50 [3] | IC50 (human KDR kinase) | Compound | IC50 (human RET kinase) | IC50 (human Aurora B kinase) | IC50 (BAF3 cells) | GI50 (BAF3-KIF5B-RET cells; [4]) |
| --- | --- | --- | --- | --- | --- | --- | --- | --- | --- |
| 3.3 nM | 43.6 nM | 624 nM | 46.9 nM |  | COc1ccc(CN2C3CC2CN(c2ccc(-c4cc(OCC(C)(C)O)cn5ncc(C#N)c45)cn2)C3)cn1 [Loxo-292, reference compound] |  |  |  |  |
| 0.7 nM | 3.9 nM | 59.4 nM | 18.4 nM | 21 nM | CC(C)(O)c1ccc(-c2cc(-c3cnc(N4C5CC6CC4CC(NC(=O)c4ncccc4Cl)(C6)C5)cn3)c3c(C#N)cnn3c2)nc1 [Example 18, 3-chloro-N-((1R,3S,5s,7s)-2-(5-(3-cyano-6-(5-(2-hydroxypropan-2-yl)pyridin-2-yl)pyrazolo[1,5-a]pyridin-4-yl)pyrazin-2-yl)-2-azaadamantan-5-yl)picolinamide] | 1.4 nM |  | 1170 nM | 0.7 nM |

| Compound | GI50 (BAF3-KIF5B-RET cells; [5]) | GI50 [1] | GI50 [2] | GI50 [3] | IC50 (human KDR kinase) | IC50 (human RET kinase) | IC50 (human Aurora B kinase) | IC50 (BAF3 cells) | GI50 (BAF3-KIF5B-RET cells; [4]) |
| --- | --- | --- | --- | --- | --- | --- | --- | --- | --- |
| COc1ccc(CN2C3CC2CN(c2ccc(-c4cc(-c5ccc(C(C)(C)O)cn5)cn5ncc(C#N)c45)cn2)C3)cn1 [Example 9, 6-(5-(2-hydroxypropan-2-yl)pyridin-2-yl)-4-(6-(6-((6-methoxypyridin-3-yl)methyl)-3,6-diazabicyclo[3.1.1]heptan-3-yl)pyridin-3-yl)pyrazolo[1,5-a]pyridine-3-carbonitrile] | 0.6 nM | 4.8 nM | 54.6 nM | 13.2 nM |  | 0.58 nM | 80 nM | 1130 nM | 0.6 nM |
